The source of these data is ChEMBL document CHEMBL5727994, “Heterocyclic glutaminase inhibitors” (2020).

Structures are written as SMILES.

The test in a line: Modified Recombinant Enzyme Assay: Glutaminase reaction buffer was prepared [50 mM Tris-HCl pH 8.8, 150 mM K2HPO4, […] EDTA, 0.1 mg/ml BSA (Calbiochem no. 2960), 1 mM DTT, 2 mM NADP+(Sigma Aldrich no. N5755), and 0.01% TX-100] and used to make 3×-enzyme-containing solution, 3×-substrate-containing solution, and 3×-inhibitor-containing solution (see below) Inhibitor-containing solution was made.

In general, IC50 refers to the concentration at which inhibition is half-maximal. On to `Cc1cccc(CC(=O)Nc2nnc(CCCCc3ccc(NC(=O)Cc4cccc(OC(F)(F)F)c4)nn3)s2)n1`, for which the IC50 was determined as 12 nM.
Then `O=C(Cc1ccccn1)Nc1nnc(CCCCc2ccc(NC(=O)C(O)c3ccccc3)nn2)s1` (stereo not drawn), with 190 nM; and `O=C(Cc1cc(OC(F)(F)F)ccc1F)Nc1ccc(CCCCc2nnc(NC(=O)Cc3ccccn3)s2)nn1`, with 20 nM.
Turning to `COc1ccc(CC(=O)Nc2ccc(CCCCc3nnc(NC(=O)Cc4ccccn4)s3)nn2)cc1OC(F)(F)F`, the IC50 worked out at 24 nM.
For `O=C(Cc1ccc(Cl)c(OC(F)(F)F)c1)Nc1ccc(CCCCc2nnc(NC(=O)Cc3ccccn3)s2)nn1`, the IC50 was found to be 16 nM.
In the case of `O=C(Cc1cc(O)cc(OC(F)(F)F)c1)Nc1ccc(CCCCc2nnc(NC(=O)Cc3ccccn3)s2)nn1` it was 13 nM; in that of `COc1cc(CC(=O)Nc2ccc(CCCCc3nnc(NC(=O)Cc4ccccn4)s3)nn2)cc(OC(F)(F)F)c1`, 16 nM; in that of `CC(C)(C)OC(=O)Nc1cccc(CC(=O)Nc2nnc(CCCCc3ccc(NC(=O)Cc4cccc(OC(F)(F)F)c4)nn3)s2)n1`, 140 nM.
In the case of `O=C(Cc1ccc(F)c(OC(F)(F)F)c1)Nc1ccc(CCCCc2nnc(NC(=O)Cc3ccccn3)s2)nn1` it was 33 nM; in that of `O=C(Cc1ccc(O)c(OC(F)(F)F)c1)Nc1ccc(CCCCc2nnc(NC(=O)Cc3ccccn3)s2)nn1`, 42 nM; in that of `O=C(Cc1cc(OC(F)(F)F)ccc1O)Nc1ccc(CCCCc2nnc(NC(=O)Cc3ccccn3)s2)nn1`, 26 nM.
In the case of `COc1ccc(OC(F)(F)F)cc1CC(=O)Nc1ccc(CCCCc2nnc(NC(=O)Cc3ccccn3)s2)nn1` it was 34 nM; in that of `Nc1cccc(CC(=O)Nc2nnc(CCCCc3ccc(NC(=O)Cc4cccc(OC(F)(F)F)c4)nn3)s2)n1`, 50 nM.
